Measurements published in PubChem BioAssay (NCI).
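Assay format: 96-well plates, 48-hour exposure. TGI is the concentration that stops growth completely.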

What was measured:
Test in all cases: NCI anticancer screen, dose series, 48 h
NCI-H460 lung = system: NCI-H460 lung
A498 renal = system: A498 renal
A549 NSCLC = system: A549 NSCLC
SK-MEL-2 melanoma = system: SK-MEL-2 melanoma
BT-549 breast = system: BT-549 breast
HCC-2998 colon = system: HCC-2998 colon
MDA-MB-231 breast = system: MDA-MB-231 breast
HCT-15 colon = system: HCT-15 colon
RPMI-8226 leukemia = system: RPMI-8226 leukemia
NCI/ADR-RES ovarian = system: NCI/ADR-RES ovarian
LOX IMVI melanoma = system: LOX IMVI melanoma
ACHN renal = system: ACHN renal
EKVX NSCLC = system: EKVX NSCLC
K-562 leukemia = system: K-562 leukemia
UACC-62 melanoma = system: UACC-62 melanoma
SF-295 CNS = system: SF-295 CNS
MCF7 breast = system: MCF7 breast
MOLT-4 leukemia = system: MOLT-4 leukemia
NCI-H522 lung = system: NCI-H522 lung
SN12C renal = system: SN12C renal
HL-60(TB) leukemia = system: HL-60(TB) leukemia
OVCAR-3 ovarian = system: OVCAR-3 ovarian
SNB-75 CNS = system: SNB-75 CNS
U251 CNS = system: U251 CNS
SK-OV-3 ovarian = system: SK-OV-3 ovarian
NCI-H23 lung = system: NCI-H23 lung
MDA-N = system: MDA-N
HS 578T breast = system: HS 578T breast
UACC-257 melanoma = system: UACC-257 melanoma
KM12 colon = system: KM12 colon
OVCAR-5 ovarian = system: OVCAR-5 ovarian
SK-MEL-5 melanoma = system: SK-MEL-5 melanoma
SNB-19 CNS = system: SNB-19 CNS
M14 melanoma = system: M14 melanoma
SW-620 colon = system: SW-620 colon
RXF 393 renal = system: RXF 393 renal
SK-MEL-28 melanoma = system: SK-MEL-28 melanoma
PC-3 prostate = system: PC-3 prostate
T-47D breast = system: T-47D breast
HT29 colon = system: HT29 colon
NCI-H226 lung = system: NCI-H226 lung
UO-31 renal = system: UO-31 renal
SF-268 CNS = system: SF-268 CNS
OVCAR-8 ovarian = system: OVCAR-8 ovarian
CAKI-1 renal = system: CAKI-1 renal
OVCAR-4 ovarian = system: OVCAR-4 ovarian
CCRF-CEM leukemia = system: CCRF-CEM leukemia
MDA-MB-435 = system: MDA-MB-435
HOP-62 NSCLC = system: HOP-62 NSCLC
COLO 205 colon = system: COLO 205 colon
786-0 renal = system: 786-0 renal
MALME-3M melanoma = system: MALME-3M melanoma
IGROV1 ovarian = system: IGROV1 ovarian
HOP-92 NSCLC = system: HOP-92 NSCLC
HCT-116 colon = system: HCT-116 colon
TK-10 renal = system: TK-10 renal
DU-145 prostate = system: DU-145 prostate
SR leukemia = system: SR leukemia
SF-539 CNS = system: SF-539 CNS

Structure (SMILES): CC(C)(C)CN1[C@@H]2CCCC[C@H]2N(CC(C)(C)C)P1(=O)C(O)/C=C/c1ccccc1 (stereo partly drawn)
- TGI (NCI-H460 lung): 85.3 µM
- TGI (A498 renal): 89.8 µM
- TGI (A549 NSCLC): > 100 µM
- TGI (SK-MEL-2 melanoma): 93.1 µM
- TGI (BT-549 breast): > 100 µM
- TGI (HCC-2998 colon): 92.6 µM
- TGI (MDA-MB-231 breast): > 100 µM
- TGI (HCT-15 colon): > 100 µM
- TGI (RPMI-8226 leukemia): 56.1 µM
- TGI (NCI/ADR-RES ovarian): > 100 µM
- TGI (LOX IMVI melanoma): 37.3 µM
- TGI (ACHN renal): 93.7 µM
- TGI (EKVX NSCLC): > 100 µM
- TGI (K-562 leukemia): > 100 µM
- TGI (UACC-62 melanoma): > 100 µM
- TGI (SF-295 CNS): > 100 µM
- TGI (MCF7 breast): > 100 µM
- TGI (MOLT-4 leukemia): > 100 µM
- TGI (NCI-H522 lung): > 100 µM
- TGI (SN12C renal): 57.5 µM
- TGI (HL-60(TB) leukemia): 81.1 µM
- TGI (OVCAR-3 ovarian): > 100 µM
- TGI (SNB-75 CNS): > 100 µM
- TGI (U251 CNS): > 100 µM
- TGI (SK-OV-3 ovarian): > 100 µM
- TGI (NCI-H23 lung): > 100 µM
- TGI (MDA-N): > 100 µM
- TGI (HS 578T breast): 73.2 µM
- TGI (UACC-257 melanoma): > 100 µM
- TGI (KM12 colon): > 100 µM
- TGI (OVCAR-5 ovarian): > 100 µM
- TGI (SK-MEL-5 melanoma): 38.9 µM
- TGI (SNB-19 CNS): > 100 µM
- TGI (M14 melanoma): > 100 µM
- TGI (SW-620 colon): > 100 µM
- TGI (RXF 393 renal): > 100 µM
- TGI (SK-MEL-28 melanoma): > 100 µM
- TGI (PC-3 prostate): > 100 µM
- TGI (T-47D breast): > 100 µM
- TGI (HT29 colon): > 100 µM
- TGI (NCI-H226 lung): 91.6 µM
- TGI (UO-31 renal): > 100 µM
- TGI (SF-268 CNS): > 100 µM
- TGI (OVCAR-8 ovarian): > 100 µM
- TGI (CAKI-1 renal): > 100 µM
- TGI (OVCAR-4 ovarian): > 100 µM
- TGI (CCRF-CEM leukemia): > 100 µM
- TGI (MDA-MB-435): > 100 µM
- TGI (HOP-62 NSCLC): > 100 µM
- TGI (COLO 205 colon): 34.2 µM
- TGI (786-0 renal): > 100 µM
- TGI (MALME-3M melanoma): 87.7 µM
- TGI (IGROV1 ovarian): > 100 µM
- TGI (HOP-92 NSCLC): 67 µM
- TGI (HCT-116 colon): > 100 µM
- TGI (TK-10 renal): > 100 µM
- TGI (DU-145 prostate): > 100 µM

Structure (SMILES): Cc1cccc2c(N=Nc3ccccc3[N+](=O)[O-])c(O)[nH]c12
- TGI (NCI-H460 lung): 30.6 µM
- TGI (A498 renal): > 38.3 µM
- TGI (A549 NSCLC): > 61.7 µM
- TGI (SK-MEL-2 melanoma): > 71.1 µM
- TGI (BT-549 breast): > 74.1 µM
- TGI (HCC-2998 colon): > 31.6 µM
- TGI (MDA-MB-231 breast): 6.58 µM
- TGI (HCT-15 colon): 97.7 µM
- TGI (RPMI-8226 leukemia): > 89.3 µM
- TGI (NCI/ADR-RES ovarian): > 31.4 µM
- TGI (LOX IMVI melanoma): 27.1 µM
- TGI (ACHN renal): 18.8 µM
- TGI (EKVX NSCLC): 33.6 µM
- TGI (K-562 leukemia): > 100 µM
- TGI (UACC-62 melanoma): 73.7 µM
- TGI (SF-295 CNS): 28.3 µM
- TGI (MCF7 breast): 24.3 µM
- TGI (MOLT-4 leukemia): > 100 µM
- TGI (NCI-H522 lung): 2.85 µM
- TGI (SN12C renal): 26.8 µM
- TGI (HL-60(TB) leukemia): > 100 µM
- TGI (OVCAR-3 ovarian): 30 µM
- TGI (SNB-75 CNS): 31.9 µM
- TGI (U251 CNS): 7.68 µM
- TGI (SK-OV-3 ovarian): 21.8 µM
- TGI (NCI-H23 lung): 23.4 µM
- TGI (MDA-N): > 100 µM
- TGI (HS 578T breast): 16.4 µM
- TGI (UACC-257 melanoma): > 53.5 µM
- TGI (SR leukemia): 38.7 µM
- TGI (KM12 colon): > 58.6 µM
- TGI (OVCAR-5 ovarian): > 69.2 µM
- TGI (SK-MEL-5 melanoma): > 81.9 µM
- TGI (SNB-19 CNS): > 74.1 µM
- TGI (M14 melanoma): > 100 µM
- TGI (SW-620 colon): > 74.6 µM
- TGI (RXF 393 renal): 16.6 µM
- TGI (SF-539 CNS): 8.96 µM
- TGI (SK-MEL-28 melanoma): > 100 µM
- TGI (PC-3 prostate): 38.4 µM
- TGI (T-47D breast): 21.9 µM
- TGI (HT29 colon): > 52.7 µM
- TGI (NCI-H226 lung): > 39.7 µM
- TGI (UO-31 renal): 22.5 µM
- TGI (SF-268 CNS): 33.3 µM
- TGI (OVCAR-8 ovarian): > 38.2 µM
- TGI (CAKI-1 renal): 16.3 µM
- TGI (OVCAR-4 ovarian): 16.9 µM
- TGI (CCRF-CEM leukemia): > 43.6 µM
- TGI (MDA-MB-435): > 100 µM
- TGI (HOP-62 NSCLC): 21.8 µM
- TGI (COLO 205 colon): > 63.5 µM
- TGI (786-0 renal): 11.8 µM
- TGI (IGROV1 ovarian): > 50.5 µM
- TGI (HOP-92 NSCLC): 8.16 µM
- TGI (HCT-116 colon): 34 µM
- TGI (TK-10 renal): 16.9 µM
- TGI (DU-145 prostate): > 100 µM

Structure (SMILES): CC(C)C[C@H]1C(=O)N2CCC[C@H]2[C@]2(O)O[C@](NC(=O)[C@@H]3C=C4c5cccc6[nH]c(Br)c(c56)C[C@H]4N(C)C3)(C(C)C)C(=O)N12
- TGI (NCI-H460 lung): > 100 µM
- TGI (A498 renal): > 100 µM
- TGI (A549 NSCLC): > 100 µM
- TGI (SK-MEL-2 melanoma): > 100 µM
- TGI (BT-549 breast): > 100 µM
- TGI (HCC-2998 colon): > 100 µM
- TGI (MDA-MB-231 breast): > 100 µM
- TGI (HCT-15 colon): > 100 µM
- TGI (RPMI-8226 leukemia): > 100 µM
- TGI (NCI/ADR-RES ovarian): > 100 µM
- TGI (LOX IMVI melanoma): > 100 µM
- TGI (ACHN renal): > 100 µM
- TGI (EKVX NSCLC): > 100 µM
- TGI (K-562 leukemia): > 100 µM
- TGI (UACC-62 melanoma): > 100 µM
- TGI (SF-295 CNS): > 100 µM
- TGI (MCF7 breast): > 100 µM
- TGI (MOLT-4 leukemia): > 100 µM
- TGI (NCI-H522 lung): > 100 µM
- TGI (SN12C renal): > 100 µM
- TGI (HL-60(TB) leukemia): 28.1 µM
- TGI (OVCAR-3 ovarian): > 100 µM
- TGI (SNB-75 CNS): > 100 µM
- TGI (U251 CNS): > 100 µM
- TGI (SK-OV-3 ovarian): > 100 µM
- TGI (MDA-N): > 100 µM
- TGI (HS 578T breast): > 100 µM
- TGI (UACC-257 melanoma): > 100 µM
- TGI (SR leukemia): > 100 µM
- TGI (KM12 colon): > 100 µM
- TGI (OVCAR-5 ovarian): > 100 µM
- TGI (SK-MEL-5 melanoma): > 100 µM
- TGI (SNB-19 CNS): > 100 µM
- TGI (M14 melanoma): > 100 µM
- TGI (SW-620 colon): > 100 µM
- TGI (RXF 393 renal): > 100 µM
- TGI (SF-539 CNS): > 100 µM
- TGI (SK-MEL-28 melanoma): > 100 µM
- TGI (PC-3 prostate): > 100 µM
- TGI (T-47D breast): > 100 µM
- TGI (HT29 colon): > 100 µM
- TGI (NCI-H226 lung): > 100 µM
- TGI (UO-31 renal): > 100 µM
- TGI (SF-268 CNS): > 100 µM
- TGI (OVCAR-8 ovarian): > 100 µM
- TGI (CAKI-1 renal): > 100 µM
- TGI (OVCAR-4 ovarian): > 100 µM
- TGI (CCRF-CEM leukemia): > 100 µM
- TGI (MDA-MB-435): > 100 µM
- TGI (HOP-62 NSCLC): > 100 µM
- TGI (COLO 205 colon): 23.5 µM
- TGI (786-0 renal): > 100 µM
- TGI (MALME-3M melanoma): > 100 µM
- TGI (IGROV1 ovarian): > 100 µM
- TGI (HOP-92 NSCLC): > 100 µM
- TGI (HCT-116 colon): > 100 µM
- TGI (TK-10 renal): > 100 µM
- TGI (DU-145 prostate): > 100 µM
